# Marks after values point to notes of the source that are not given here.
# Experiments:
# [1] = test system: rats ligated at carotids (both sides); assay: Death of rats ligated at both carotids (cerebral ischemia); format: in vivo, male Wistar rats; conditions: 300 mg/kg i.p. per single dose, given immediately after and 1 and 2 hours after ligation; dead animals 24 hours after ligation; 24 animals; control 21 dead
# Protocol: Both carotids of male Wistar rats (weighting about 300 g) were permanently ligated to cause a cerebral ischemic state. The rats suffered neural conditions (paralysis or spasm of the limbs, etc.) and most of them died in 24 hours. The influence of the ester on death 24 hours afer ligation was examined. The ester was intraperitoneally administered immediately after the ligation, and 1 and 2 hours after the ligation. Physiological saline alone was given to the control group.
# (1) mg/kg i.p.: amount of a single dose given. (2) Number of dead animals 24 hours after ligation *5% is a significant difference in death rate compared to the control group (group given physiological saline.
# [2] = test system: autoblood-injected rats; assay: Neural condition (duration of forced posture) of autoblood-injected rats; format: in vivo, Male Wistar rats; conditions: 300 mg/kg i.p. once a day, 30 minutes after administration
# Protocol: (§1) Male Wistar rats (weighing about 300 g) were anesthesized with pentobarbital (40 mg/kg i.e.) and fixed on a brain normal position fixing device. In order to form hematoma in the brain, 0.2 cc of autoblood previously collected from the tail vein was injected in the site of the brain at 4 mm to the right from the arrow suture, at 2 mm to the tail side from the crown suture and at 4 mm of the brain surface. The left rear paw was forced onto a stand having a height of 4.5 cm and the time from which the forced posture was maintained was measured and evaluated as neural condition. The ester was intraperitoneally administered immediately after the injection of autoblood and then once a day. Physiological saline alone was given to the control group. The measurement of neural condition was made after the operation daily for 4 consecutive days, 30 minutes after administration.
# (1) mg/kg i.p.: amount of a single dose given. (2) Unit: second (3) Number of days after the operation. *5% is a significant difference in duration as compared to the control group (group given physiological saline). **1% is a significant difference in duration as compared to the control group. Number of animals: 10 - 11.
# [3] = test system: Malonedealdehyde in the Brain of Rats Injected with Autoblood; assay: Malonedealdehyde (lipid peroxide) content in the brain of autoblood-injected rats; format: in vivo, Male Wistar rats; conditions: 300 mg/kg i.p. once a day; right hemispherical brain on the fourth day after the operation; control 168±15
# Protocol: as §1, with “The measurement of neural condition was made after the operation daily for 4 consecutive days, 30 minutes after administration.” left out
# Immediately after the observation of the neural condition on the fourth day of the operation, the head of each rat was cut off and the right hemispherical brain was isolated. The lipid peroxides in the brain were fluorometrically determined by forming about 10% of a homogenate with 1.15% potassium chloride, taking 0.1 ml of the homogenate and measuring using malonedealdehyde as a standard substance according to Yagi's method.
# Futher in Table IV are shown the results of the effect on malonedealdehyde in the brain. The results were evaluated by the Student's t-test. […]
# [4] = Acute toxicity (LD50) on intraperitoneal injection into mice; conditions: mouse, in vivo, ip, read-out: acute toxicity (LD₅₀)
# From the text: The isopropyl ester (I) and salts have an acute toxicity (LD₅₀) of approximately 5.3 g/kg on intraperitoneal injection into mice.
# [5] = test system: low oxygen-loaded mice; assay: Survival time of low oxygen-loaded mice; format: in vivo, Male ICR mice; conditions: 300 mg/kg single dose 10 minutes before inhalation of 95.3% nitrogen / 4.7% oxygen; 14 animals; control 201±18
# Protocol: Male ICR mice (weighing about 30 g) were put in a glass vessel having a volume of 2 liters, equipped with an inhalation opening and an exhaust opening. A gaseous mixture of 95.3% nitrogen and 4.7% oxygen was blown into the vessel at 5 ℓ/min. to cause a low oxygen state, and the time for mice to die was measured. The ester was intravenously administered 10 minutes before the inhalation of the gaseous mixture. Only physiological saline was given to the control group.
# (1) mg/kg i.p.: amount of a single dose given. (2) Unit: second * 5%is a significant difference in death rate as compared to the control group (group given physiological saline).
compound,measurement,setting,value
"CC(C)OC(=O)CNC(=O)[C@H](CS)NC(=O)CC[C@H](N)C(=O)O [Glutathione monoisopropyl ester, isopropyl γ-L-glutamyl-L-cysteinyl glycinate]",Number of Dead Animals,[1],15*
same,"Duration, Day 1","[2]; Day 1 after the operation, control 42±10",11 ± 5 s
same,"Duration, Day 2","[2]; Day 2 after the operation, control 53±12",22 ± 11 s
same,"Duration, Day 3","[2]; Day 3 after the operation, control 43±11",8 ± 1 s
same,"Duration, Day 4","[2]; Day 4 after the operation, control 31±10",7 ± 1 s
same,Content of Malonedealdehyde,[3],97±20 nmol/g wet weight
same,LD50,[4],~5300 mg/kg
same,Survival Time,[5],262 ± 22 s

# From patent publication EP0257992A2, “Prophylactic and therapeutic agents for cerebral ischemia” (YAMANOUCHI PHARMACEUTICAL CO. LTD., priority 1986, dated 1988)
